Reference: paper PMC13164762, “Development and Validation of an LC-MS/MS Method for the Quantitation of JNJ-64619178 (JNJ) in Mouse Plasma: Characterization of In Vitro and In Vivo Pharmacokinetic Properties” (Molecules, 2026)
Where “and” joins values, the source holds several entries; their conditions need not be identical. Equal entries are not always repeated. Where two headings read alike, the source gives them in different places.

Tests used:
[1] = Rapid equilibrium dialysis (RED) brain protein binding; type: in vitro ADME, mouse; details: for fraction unbound at 5 h: mouse, brain homogenate
Experimental: (§1) A rapid equilibrium dialysis (RED) protein binding assay was performed to determine the protein binding of JNJ in plasma and brain matrix. The RED plate was obtained from Thermo Fisher Scientific (Frederick, MD, USA) for the experiment. An aliquot (200 µL) of JNJ spiked plasma/brain homogenate was poured into the donor chamber, and 400 µL dialysis buffer-PBS containing 100 mM sodium phosphate and 150 mM sodium chloride was added into the receiver compartment of each RED insert in triplicate. The plate was kept in incubation for 5 h on the orbital shaker at 37 °C. Following incubation, 50 µL plasma and buffer aliquots were collected separately, and an equal volume of opposite matrix was added. Collected samples were processed as previously described in Section 4.6 and analyzed using LC-MS/MS. Degree of protein binding (%) was calculated by the following equation:(6) Protein bound (%)=Concentrationdonor cell−Concentrationreceiver cell/Concentrationdonor cell×100

[2] = input for fu,inc equation; source not given; cited from earlier work
[3] = Rapid equilibrium dialysis (RED) plasma protein binding; type: in vitro ADME; details: for fraction unbound at 5 h: mouse, plasma
Experimental: as §1

[4] = In vivo PK study (plasma, IV and PO); design: species or system balb/c mice; details: for half-life: read-out: t1/2 (terminal half-life) (converted)
Experimental: We performed in vivo PK analysis for JNJ by 2.5 mg kg^−1 IV and 10 mg kg^−1 PO routes of administration in healthy male balb/c mice. We could quantify a dynamic range of concentrations in in vivo PK samples with our established LC-MS/MS method. Non-compartmental analysis (NCA) was performed using Phoenix software version 8.3 to estimate PK parameters from the observed plasma concentration–time profile data. […] The NCA PK parameter data are represented in Table 6. For the oral PK study, male balb/C mice were grouped into two groups, with n = 4 for each group. Throughout the experiment, mice had free access to adequate food and water. The oral solution comprised 20% (v/v) polyethylene glycol 400, 10% (v/v) propylene glycol, 10% (v/v) ethanol, 2% (v/v) DMSO, 5% cremophore, and water as the rest of the volume. For the IV dose administration, 12 male balb/C mice were used in the study, divided into two groups. The IV solution used the same composition as the oral study. Doses of 10 and 2.5 mg kg^−1 were used for oral and IV routes, respectively. Blood samplings were done at 5 min, 15 min, 30 min, 1 h, 2 h, 4 h, 8 h, and 24 h. After collection, blood samples were centrifuged immediately at 956× g for 10 min, and plasma was separated in an Eppendorf tube and stored at −80 °C until processed. In the oral PK study, tissues—liver, kidney, spleen, lung, and brain—were collected at 2, 8, and 24 h to assess the biodistribution pattern of JNJ in the oral route.

[5] = male, mouse, IV 2.5 mg kg^−1, balb/c mice, plasma, n = 6
[6] = male, mouse, PO 10 mg kg^−1, balb/c mice, plasma, n = 4

- Brain Protein Binding (%) ([1]; mouse brain homogenate, RED, 5 h, 37 °C, n = 3): 94 ± 1%
- fraction unbound at 5 h ([1]; mouse brain homogenate, RED, 5 h, 37 °C, n = 3, read-out: Brain Protein Binding (%)): < 0.06
- fraction unbound at 5 h ([1]; mouse brain, read-out: fraction unbound in brain (fu,brain)): 0.057
- Plasma Protein Binding (%) ([3]; mouse plasma, RED, 5 h, 37 °C, n = 3): 97 ± 3%
- fraction unbound at 5 h ([3]; RED, 5 h, 37 °C, n = 3, read-out: Plasma Protein Binding (%)): < 0.06
- fraction unbound at 5 h ([3]; read-out: fraction unbound in plasma (fu,plasma)): 0.025
- underestimation of observed plasma clearance by predicted hepatic clearance ([4]; 1.6 vs 3.8 mL min^−1 kg^−1, mice): approximately 2.3 fold
- in vivo clearance as % of mice hepatic blood flow ([4]; IV, hepatic blood flow 3.6 L h^−1 kg^−1): ~6%
- volume of distribution relative to total body water ([4]; IV, total body water 68.6% of body weight): ~ 1.6 times
- CL (plasma clearance) ([4]; PO 10 mg kg^−1, balb/c mice, oral CL normalized by bioavailability (%)): 0.23 ± 0.04 L/h/kg
- Vz (volume of distribution) ([4]; PO 10 mg kg^−1, balb/c mice, oral Vz normalized by bioavailability (%)): 0.88 ± 0.32 L/kg
- Tmax ([4]; PO 10 mg kg^−1, mice, plasma): ~ 30 min
- Cmax relative to IC50 in the HD-MB cell line ([4]; PO 10 mg kg^−1, times higher than IC50 (821 ng mL^−1)): ~ 3 times
- clearance ([4]; male, balb/c, mouse, plasma, 2.5 mg kg^−1, IV, equivalent to 0.23 L h^−1 kg^−1, read-out: observed plasma clearance): 3.8 mL/min/kg
- Tmax ([4]; male, balb/c, mouse, plasma, iv, 2.5 mg/kg, IV 2.5 mg kg^−1, balb/c mice, plasma, n = 6, read-out: Tmax (converted)): 6.6 ± 4.8 min
- Tmax ([4]; male, balb/c, mouse, plasma, po, 10 mg/kg, PO 10 mg kg^−1, balb/c mice, plasma, n = 4, read-out: Tmax (converted)): 25.2 ± 8.4 min
- Tmax ([4]; male, balb/c, mouse, plasma, po, 10 mg/kg, PO 10 mg kg^−1, mice, plasma, read-out: Tmax (converted)): 30 min
- clearance ([4]; male, mouse, plasma, IV 2.5 mg kg^−1, balb/c mice, n = 6, read-out: CL (plasma clearance) (converted)): 3.83 mL/min/kg
- Vd ([4]; male, mouse, plasma, IV 2.5 mg kg^−1, balb/c mice, n = 6, read-out: Vz (volume of distribution)): 1.2 ± 0.7 L/kg
- half-life ([4]; male, mouse, plasma, IV 2.5 mg kg^−1, balb/c mice, n = 6): 198 ± 66 min
- half-life ([4]; male, mouse, plasma, PO 10 mg kg^−1, balb/c mice, n = 4): 156 ± 42 min
- bioavailability ([4]; male, mouse, plasma, PO 10 mg kg^−1 vs IV 2.5 mg kg^−1, balb/c mice): ~15% and 15%
- AUC [4, 5]: 11600 ng·h/mL
- Cmax [4, 5]: 4940 ± 1220 ng/mL
- AUC [4, 6]: 6800 ± 1270 ng·h/mL
- Cmax [4, 6]: 2780 ± 1030 ng/mL
SMILES: Nc1nc2cc(CC[C@H]3C[C@@H](n4ccc5c(N)ncnc54)[C@H](O)[C@@H]3O)ccc2cc1Br [JNJ, JNJ-64619178]
- logP [2]: 2.3
